Assay results published in ChEMBL document CHEMBL1201862, “PubChem BioAssay data set” (2004).
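Assay format: 96-well plates, 48-hour exposure. The concentration for 50% growth inhibition is given as GI50.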 Calls of active or inactive are those of the source. Cut-off read from the data, not from the text of the source: active = GI50 up to about 1.1 µM and inactive = higher.

Columns and labels:
Test in all cases: growth of human tumour cells (NCI), 48 h
786-0 = tested on: 786-0
A498 = tested on: A498
ACHN = tested on: ACHN
BT-549 = tested on: BT-549
CAKI-1 = tested on: CAKI-1
CCRF-CEM = tested on: CCRF-CEM
COLO 205 = tested on: COLO 205
DU-145 = tested on: DU-145
HCC 2998 = tested on: HCC 2998
HCT-15 = tested on: HCT-15
HOP-62 = tested on: HOP-62
HOP-92 = tested on: HOP-92
HT-29 = tested on: HT-29
Hs-578T = tested on: Hs-578T
IGROV-1 = tested on: IGROV-1
K562 = tested on: K562
KM12 = tested on: KM12
M14 = tested on: M14
MCF7 = tested on: MCF7
MDA-MB-231 = tested on: MDA-MB-231
MDA-MB-435 = tested on: MDA-MB-435
MDA-N = tested on: MDA-N
MOLT-4 = tested on: MOLT-4
Malme-3M = tested on: Malme-3M
NCI-H226 = tested on: NCI-H226
NCI-H522 = tested on: NCI-H522
NCI/ADR-RES = tested on: NCI/ADR-RES
OVCAR-3 = tested on: OVCAR-3
OVCAR-5 = tested on: OVCAR-5
OVCAR-8 = tested on: OVCAR-8
PC-3 = tested on: PC-3
RPMI-8226 = tested on: RPMI-8226
RXF 393 = tested on: RXF 393
SF-268 = tested on: SF-268
SF-295 = tested on: SF-295
SF-539 = tested on: SF-539
SK-MEL-28 = tested on: SK-MEL-28
SK-MEL-2 = tested on: SK-MEL-2
SK-MEL-5 = tested on: SK-MEL-5
SK-OV-3 = tested on: SK-OV-3
SN12C = tested on: SN12C
SNB-19 = tested on: SNB-19
SNB-75 = tested on: SNB-75
SR = tested on: SR
SW-620 = tested on: SW-620
T47D = tested on: T47D
TK-10 = tested on: TK-10
U-251 = tested on: U-251
UACC-257 = tested on: UACC-257
UACC-62 = tested on: UACC-62
UO-31 = tested on: UO-31
A549 = tested on: A549
EKVX = tested on: EKVX
HCT-116 = tested on: HCT-116
HL-60 = tested on: HL-60
LOX IMVI = tested on: LOX IMVI
NCI-H23 = tested on: NCI-H23
NCI-H460 = tested on: NCI-H460
OVCAR-4 = tested on: OVCAR-4

Structure (SMILES): N#CC(C#N)=C1c2ccccc2C(=NN)c2ccccc21
- GI50 (786-0): > 54.8 µM (inactive)
- GI50 (A498): > 28.7 µM (inactive)
- GI50 (ACHN): 12.3 µM (inactive)
- GI50 (BT-549): > 100 µM (inactive)
- GI50 (CAKI-1): > 25.7 µM (inactive)
- GI50 (CCRF-CEM): > 100 µM (inactive)
- GI50 (COLO 205): > 100 µM (inactive)
- GI50 (DU-145): 5.25 µM (inactive)
- GI50 (HCC 2998): > 100 µM (inactive)
- GI50 (HCT-15): > 100 µM
- GI50 (HOP-62): 10.6 µM (inactive)
- GI50 (HOP-92): > 100 µM (inactive)
- GI50 (HT-29): > 100 µM (inactive)
- GI50 (Hs-578T): 9.57 µM (inactive)
- GI50 (IGROV-1): > 100 µM (inactive)
- GI50 (K562): > 100 µM (inactive)
- GI50 (KM12): > 100 µM (inactive)
- GI50 (M14): 88.1 µM (inactive)
- GI50 (MCF7): > 100 µM (inactive)
- GI50 (MDA-MB-231): > 79.8 µM (inactive)
- GI50 (MDA-MB-435): > 100 µM (inactive)
- GI50 (MDA-N): > 100 µM (inactive)
- GI50 (MOLT-4): > 100 µM (inactive)
- GI50 (Malme-3M): 92.9 µM (inactive)
- GI50 (NCI-H226): > 100 µM (inactive)
- GI50 (NCI-H522): 3.58 µM (inactive)
- GI50 (NCI/ADR-RES): > 100 µM (inactive)
- GI50 (OVCAR-3): > 100 µM (inactive)
- GI50 (OVCAR-5): > 100 µM (inactive)
- GI50 (OVCAR-8): > 100 µM (inactive)
- GI50 (PC-3): > 100 µM (inactive)
- GI50 (RPMI-8226): > 100 µM (inactive)
- GI50 (RXF 393): 27.5 µM (inactive)
- GI50 (SF-268): > 61.4 µM (inactive)
- GI50 (SF-295): 4.83 µM (inactive)
- GI50 (SF-539): > 56.1 µM (inactive)
- GI50 (SK-MEL-28): > 100 µM (inactive)
- GI50 (SK-MEL-2): > 100 µM (inactive)
- GI50 (SK-MEL-5): 14.8 µM (inactive)
- GI50 (SK-OV-3): > 100 µM (inactive)
- GI50 (SN12C): > 100 µM (inactive)
- GI50 (SNB-19): > 100 µM (inactive)
- GI50 (SNB-75): > 43.9 µM (inactive)
- GI50 (SR): > 100 µM (inactive)
- GI50 (SW-620): > 100 µM (inactive)
- GI50 (T47D): 0.508 µM (active)
- GI50 (TK-10): > 100 µM (inactive)
- GI50 (U-251): 37.3 µM (inactive)
- GI50 (UACC-257): > 100 µM (inactive)
- GI50 (UACC-62): > 43.5 µM (inactive)
- GI50 (UO-31): > 100 µM (inactive)

Structure (SMILES): CC1(C)C=C(/C=N/Nc2ccc([N+](=O)[O-])cc2)C(C#N)=C(O)C1(C#N)C#N
- GI50 (786-0): > 100 µM (inactive)
- GI50 (A549): > 100 µM (inactive)
- GI50 (ACHN): > 100 µM (inactive)
- GI50 (BT-549): > 100 µM (inactive)
- GI50 (CAKI-1): > 100 µM (inactive)
- GI50 (CCRF-CEM): > 100 µM (inactive)
- GI50 (COLO 205): > 100 µM (inactive)
- GI50 (DU-145): > 100 µM (inactive)
- GI50 (EKVX): > 100 µM (inactive)
- GI50 (HCC 2998): > 100 µM (inactive)
- GI50 (HCT-116): > 100 µM (inactive)
- GI50 (HCT-15): > 100 µM
- GI50 (HL-60): > 100 µM (inactive)
- GI50 (HOP-62): > 100 µM (inactive)
- GI50 (HOP-92): > 100 µM (inactive)
- GI50 (HT-29): > 100 µM (inactive)
- GI50 (Hs-578T): > 100 µM (inactive)
- GI50 (IGROV-1): > 100 µM (inactive)
- GI50 (K562): > 100 µM (inactive)
- GI50 (KM12): > 100 µM (inactive)
- GI50 (LOX IMVI): > 100 µM (inactive)
- GI50 (M14): > 100 µM (inactive)
- GI50 (MCF7): > 100 µM (inactive)
- GI50 (MDA-MB-231): > 100 µM (inactive)
- GI50 (MDA-MB-435): > 100 µM (inactive)
- GI50 (MDA-N): > 100 µM (inactive)
- GI50 (MOLT-4): > 100 µM (inactive)
- GI50 (Malme-3M): > 100 µM (inactive)
- GI50 (NCI-H226): > 100 µM (inactive)
- GI50 (NCI-H23): > 100 µM (inactive)
- GI50 (NCI-H460): > 100 µM (inactive)
- GI50 (NCI-H522): > 100 µM (inactive)
- GI50 (NCI/ADR-RES): > 100 µM (inactive)
- GI50 (OVCAR-3): > 100 µM (inactive)
- GI50 (OVCAR-4): > 100 µM (inactive)
- GI50 (OVCAR-5): > 100 µM (inactive)
- GI50 (OVCAR-8): > 100 µM (inactive)
- GI50 (PC-3): > 100 µM (inactive)
- GI50 (RPMI-8226): > 100 µM (inactive)
- GI50 (RXF 393): > 100 µM (inactive)
- GI50 (SF-268): > 100 µM (inactive)
- GI50 (SF-295): > 100 µM (inactive)
- GI50 (SF-539): > 100 µM (inactive)
- GI50 (SK-MEL-28): > 100 µM (inactive)
- GI50 (SK-MEL-2): > 100 µM (inactive)
- GI50 (SK-MEL-5): > 100 µM (inactive)
- GI50 (SK-OV-3): > 100 µM (inactive)
- GI50 (SN12C): > 100 µM (inactive)
- GI50 (SNB-19): > 100 µM (inactive)
- GI50 (SNB-75): > 100 µM (inactive)
- GI50 (SR): > 100 µM (inactive)
- GI50 (SW-620): > 100 µM (inactive)
- GI50 (T47D): > 100 µM (inactive)
- GI50 (TK-10): > 100 µM (inactive)
- GI50 (U-251): > 100 µM (inactive)
- GI50 (UACC-257): > 100 µM (inactive)
- GI50 (UACC-62): > 100 µM (inactive)
- GI50 (UO-31): > 100 µM (inactive)
